Data published in patent publication US12357611B2, “Sulcardine administration for treatment of acute atrial fibrillation” (HUYABIO International, LLC, priority 2018, dated 2025).
Structures can show the parent of a compound that is named as a salt.

Tests used:
[1] = Phase 1 single ascending iv dose trial: pharmacokinetics (plasma sulcardine); assay type: in vivo, human; details: iv infusion, various dosages, FIG. 1
Protocol: (§1) HBI-3000 (sulcardine sulfate) was administered to human subjects according to the protocol provided in ClinicalTrials.gov Identifier: NCT03397641. That protocol is incorporated herein by reference in its entirety.
(§2) Objective: Provided herein are the safety, tolerability, pharmacokinetics and electrocardiogram (ECG) results of a Phase 1 single ascending dose trial of intravenous (iv) HBI-3000 in healthy subjects.
(§3) Methods: […] subjects were randomized to 6 cohorts of 8 subjects to receive 1 of 5 single ascending iv doses (Table 2) of HBI-3000 or placebo (6:2), with 2 cohorts receiving the 600 mg dose. Doses of RBI-3000 ranged from 20 mg (Cohort A), 60 mg (Cohort B), 180 mg (Cohort C), 360 mg (Cohort D), to 600 mg (Cohort E and F). Drug was a lyophilized powder, reconstituted to […] then diluted in saline for delivery via intravenous infusion as a 50 mL solution over 30 minutes.

healthy subjects [2] = assay: Phase 1 single ascending iv dose trial: continuous 12-lead Holter ECG, baseline and placebo subtracted (ΔΔ) ECG intervals at Cmax; assay type: in vivo, human; details: single iv doses 20 to 600 mg
Protocol: as §1, §2, §3
Continuous 12-lead Holter ECG data were recorded at baseline and 11 time points thereafter. Mean baseline and placebo subtracted (ΔΔ) ECG intervals (QTcF, HR, PR, QRS, and P-wave duration [PDur]) and T-wave segments (J to T peak [JTp] and T peak to T end [TpTe]) were calculated at Cmax for each dose.
Table 2 summarizes ECG data at Cmax for each dose, as predicted by mixed-effects modeling. […] The increases in QRS and PDur are consistent with block of INa-Peak. […]

healthy subjects [3] = assay: Phase 1 single ascending iv dose trial: safety and tolerability; assay type: in vivo; details: single iv doses 20 to 600 mg
Protocol: as §1, §2, §3

[4] = Chen et al.; cited from earlier work

SMILES: COc1ccc(S(=O)(=O)NCc2cc(CN3CCCC3)c(O)c(CN3CCCC3)c2)cc1 [HBI-3000, sulcardine sulfate]
- removal from plasma after Cmax ([1]; listed as sulcardine sulfate): quickly removed or isolated from plasma
- dose dependence of ECG parameter changes (healthy subjects [2]): dose-proportional changes in all ECG parameters
- tolerability, dose limiting adverse events or arrhythmias (healthy subjects [3]): well tolerated with no dose limiting adverse events or arrhythmias observed

SMILES: COc1ccc(S(=O)(=O)NCc2cc(CN3CCCC3)c(O)c(CN3CCCC3)c2)cc1 [sulcardine, N-[4-hydroxy-3,5-bis(1-pyrrolidinylmethyl)benzyl]-4-methoxybenzenesulfonamide]
- half-life for oral administration [4]: about 16 hours
- removal from plasma after Cmax [1]: largely removed or isolated from plasma at 1.0 hours
